In assay [1] the test system is Lipoxygenase. Kind of assay: Ex-Vivo Measurement of Lipoxygenase Inhibition in Orally Dosed Rats (LTB4 in A23187-stimulated blood). Also noted: species or system Male Sprague Dawley rats. The settings on record: p.o. The method, then:
2. Ex-Vivo Measurement of Lipoxygenase Inhibition in Orally Dosed Rats
After an interval of 3 or 6 hours, the rats were anesthetized with metofane (n=4/group) and blood collected in heparinized tubes. White blood cell counts and differentials were made. One ml of blood from each animal was placed in a 5 ml plastic tube in a shaker bath at 37° C. A23187 at a final concentration of 10 μM was added to the blood and the blood vortexed and incubated for 15 min at 37° C. with gentle shaking. Incubation was terminated by vortexing sample and centrifuging immediately at 1200× G for 15 min at 4° C. The plasma was transferred to 15 ml plastic tubes each containing 8 ml of methanol to precipitate protein followed by vortexing. The samples were stored at -70° C. overnight and the next day the samples were centrifuged at 800× G for 15 min to pellet the precipitate. The samples were dried in a Savant SpeedVac Concentrator Model SVC 200H and reconstituted to the original volume with cold RIA or ELISA buffer. The reconstituted samples were stored at -70° C. until assayed. The assay for LTB4 was performed according to the directions of the ^3 H!RIA kit or ELISA kit (Seragen). The total metabolite level in 1 ml of blood is calculated and reported as ng/10^6 neutrophils. Significance is determined by a one-way analysis of variance with LSD comparisons to control (p≤0.05).

For assay [2], the system named is LT-dependent bronchoconstriction. The assay can be described thus: Inhibition of Bronchoconstriction in Guinea Pigs Induced by Exogenously Administered Antigen (ovalbumin). The format is in vivo, Male guinea pigs. The settings on record: Cavia porcellus, 5 min; for inhibition in vivo at 10 mg/kg: iv. The method, then: 4. Inhibition of Brochoconstriction in Guinea Pigs Induced by Exogenously Administered Antigen
Male guinea pigs (Charles River, Wilmington, Mass.) were sensitized 3-4 weeks prior to antigen challenge by administration of 2 i.m. injections of ovalbumin, 1 into each hind limb (35 mg total). Sensitized animals (500-600 g) were fasted overnight prior to experimentation. Conscious animals were then dosed p.o. with drug or vehicle alone (0.5% Tween 80 in H2 O) at the indicated times prior to antigen challenge, or anesthetized animals were dosed i.v. with drug or vehicle alone (DMSO) 5 min prior to antigen challenge. Animals were anesthetized by urethane (2.8 g/kg i.p.). A carotid artery and jugular vein were cannulated to allow for the monitoring of blood pressure and the administration of drugs, respectively. The trachea was then cannulated and connected to a Harvard Apparatus rodent ventilator (S. Natick, Mass). Spontaneous respiration was abolished by the administration of succinylcholine (2.5 mg/kg i.v.). The animals were then ventilated with room air at a rate of 65 breaths per min. Airway inflation pressure was measured using a Statham pressure transducer (Gould Instruments, Cleveland, Ohio) connected to the tracheal cannula via a side-arm and recorded on a Grass Instruments recorder (Quincy, Mass). The tidal volume (approximately 10 cc/kg) was adjusted to give a baseline inflation pressure of 8-10 cm H2 O at end inspiration. Animals were then allowed 20 min to stabilize.
Following the stabilization period, animals were given i.v. injections of pyrilamine (5 mg/kg), propranolol (0.1 mg/kg) and indomethacin (10 mg/kg) at 15, 10 and 5 min, respectively, prior to antigen challenge. This pretreatment results in an LT-dependent bronchoconstriction following antigen challenge, which was accomplished by i.v. administration of ovalbumin (10 mg/kg). Only one bronchoconstriction per animal was induced. End-inspiratory inflation pressure (in cm H2 O over baseline) was measured at 5 min post-antigen challenge. A mean value and standard error for the % inhibition of control bronchoconstriction in each drug-treated group was then calculated.

Where [3] appears, read: 5 mg/kg, pretreatment period 6 hr.

In the case of `Cc1oc(-c2ccccc2)nc1COc1ccc(CN(O)C(N)=O)cc1` [Example 1, 1-Hydroxy-1-4-(5-methyl-2-phenyl-oxazol-4-ylmethoxy)-benzyl!-urea], the “% Inhibition of LTB4” value in assay [1] (10 mg/kg, pretreatment period 3 hr) stood at 84%; in assay [1] (10 mg/kg, pretreatment period 6 hr) it was 75%. Also, 10 mg/kg produced 38% inhibition in vivo in assay [2].
Take `Cc1oc(-c2ccc(C(F)(F)F)cc2)nc1COc1ccc(CN(O)C(N)=O)cc1` [Example 6, 1-Hydroxy-1-4-5-methyl-2-(4-trifluoromethyl-phenyl)-oxazol-4-ylmethoxy!-benzyl!-urea]: the “% Inhibition of LTB4” value in assay [1] (setting [3]) is 70%. The inhibition in vivo (usually the percentage by which the read-out fell short of the control) at 10 mg/kg in assay [2] stood at 27%. Moreover, the inhibition in vivo at 25 mg/kg in assay [2] (po) was 27%.
Consider `NC(=O)N(O)Cc1ccc(OCc2coc(-c3ccccc3)n2)cc1` [Example 9, 1-Hydroxy-1-4-(2-phenyl-oxazol-4-ylmethoxy)-benzyl!-urea], for which the “% Inhibition of LTB4” value in assay [1] (setting [3]) amounted to 60%. Also, 10 mg/kg produced 54% inhibition in vivo in assay [2]. For the same compound, at 50 mg/kg the inhibition in vivo in assay [2] (po, 50 mg/kg) was 44%.
On to `NC(=O)N(O)Cc1ccc(OCc2csc(-c3ccccc3)n2)cc1` [Example 10, 1-Hydroxy-1-4-(2-phenyl-thiazol-4-ylmethoxy)-benzyl!-urea], for which the “% Inhibition of LTB4” value in assay [1] (setting [3]) came to 67%. In assay [2], this compound registered an inhibition in vivo at 10 mg/kg of 50%. At 25 mg/kg the inhibition in vivo in assay [2] (po) was 24%.

These data come from patent US5504097A, “N-hydroxyureas as 5-lipoxygenase inhibitors and inhibitors of oxidative modification of low density lipoprotein” (American Home Products Corporation, priority 1995, dated 1996).
